Measurements reported in US11219625B2, “Inhibitors of N-linked glycosylation and methods using same” (YALE UNIVERSITY, priority 2015, dated 2022).

Columns and labels:
[1] = tested on: N-linked glycosylation; assay: D54-ERLucT cell based luciferase assay for inhibition of N-linked glycosylation
Description: (§1) The HTS approach using the bioluminescent N-linked glycosylation reporter (CCR 2011) in D54-ERLucT and D54-LucT cells has been previously described (Bennett, et al., Transl Oncol 2013, 6, 382-391). Briefly, the primary cell-based screen detects site occupancy of NLG sequons using a modified luciferase protein translated into the ER. […] The methodology for the primary (D54-ERlucT), secondary (D54-LucT), and tertiary (luciferase inhibition) screens as well and toxicity assays with CelltitreGlo are deposited in Pubchem (AID 588693).
The primary screen was developed in the D54 glioma cell line using a modified P. pyralis luciferase gene (ER-LucT) that is ER translated and glycosylated at three N-linked glycosylation consensus sequences. Glycosylation of the reporter inactivates luciferase enzymatic activity providing a robust methodology to detect inhibition of this process. D54 cells expressing a non-ER translated luciferase (LucT) insensitive to inhibition of N-linked glycoysation were used as a secondary screen for false positives. The primary screen was performed in duplicate and values were normalized to the average of positive control wells (Tunicamycin) minus averaged neutral vehicle treated wells per run. Compounds with replicate activity greater than three standard deviations above the mean average of control wells were selected for further study. A subset of 1,845 compounds met this criterion, and were advanced to simultaneous retesting in both the primary screen and a secondary (false positive) cell-based screen. […] Compounds were further triaged from consideration by consulting the Pubchem bioassay database and deprioritizing compounds showing a promiscuity rate higher than 5% across assays or by removing PAINS scaffolds (Baell, et al., J Med Chem 2010, 53, 2719-2740). Remaining compounds were assessed by medicinal chemistry review to score synthetic tractability and known issues with instability, poor solubility, or toxicity. This analysis yielded 39 compounds that were tested in a cell-free assay to detect luciferase inhibitors (Auld, et al., Proc Natl Acad Sci USA 2010, 107, 4878-4883) and by western blot analysis to detect gel mobility changes of the luciferase reporter, consistent with inhibition of N-linked glycosylation. This approach identified one aminobenzamidosulfonamide compound that blocked N-linked glycosylation.
(§2) To better understand the connection between structure and activity, analogs were prepared and tested in the D54-ERLucT cell based assay for inhibition of N-linked glycosylation (FIG. 1B). The assay was used to estimate and compare AC40 values among analogs and to guide the design of improved compounds that inhibited N-linked glycosylation. This effort generated 36 unique compounds with modifications to the amine component of the sulfonamide functionality (red), the pyrrolidine moiety (blue) or the methylaminothiazole group (green). Generally, incorporation of larger sulfonamides (i.e., larger secondary amines appended to the sulphone) was not well tolerated, resulting in erosion of potency (7 analogs). However, steric interactions could be mitigated by the introduction of a hydrogen bond accepting oxygen in a larger cyclic amine. Thus, morpholine was determined to be an acceptable surrogate for the dimethylamine component of the sulfonamide (FIGS. 1A-1D). The pyrrolidine group (blue) was replaced with various alkyl, cycloalkyl, and amine groups (7 compounds). The aminothiazole moiety was derivatized most extensively of all three regions (green highlighted area, 22 analogs). […] Analogs with the highest potency in the luciferase assay were retested with western blot analysis to insure that measurements of luciferase activation corresponded to loss of N-linked glycosylation.

[2] = tested on: H3255 cells; assay: MTT proliferation assay, H3255; assay type: cell-based; conditions: H3255, 10 μM NGI-1, 5 d, p<0.05
Protocol: FIGS. 7A-7D illustrate EGFR kinase domain mutant cell lines growth inhibition and cell cycle arrest response to NGI-1. FIG. 7A illustrates MTT assays to determine the effects of NGI-1 on growth of H3255 cells. FIG. 7B illustrates MIT assays to determine the effects of NGI-1 on growth of HCC827 cells. EGFR kinase domain mutant cell lines H3255 and HCC827 cells were untreated or treated with 10 μM NGI-1 for 5 d. […] FIG. 7C illustrates cell cycle distribution of H3255 after 24 h NGI-1 treatment for 24 h determined by flow cytometry. FIG. 7D illustrates cell cycle distribution of HCC827 after 24 h NGI-1 treatment for 24 h determined by flow cytometry.
Growth rates were determined by CellTiter 96 NonRadioactive Cell Proliferation Assay (Promega; Madison, Wis. USA) according to the manufacturer's directions. Briefly, NSCLC cells (2×10^3) untreated or treated with […] NGI-1 or 1 μM Tn, were seeded in triplicates in 96-wells plates and grown in culture medium containing […]. Cell numbers were estimated after 0, 3, and 5 days by adding MTT [(3-(4,5-Dimethylthiazol-2-yl)-2,5-diphenyltetrazolium bromide] reagent to the wells 4 hours before taking the spectrophotometric reading (absorbance at 570 nm).

[3] = tested on: FGFR1; assay: Western blot of FGFR phosphorylation, H1581 and H2444 cells; assay type: cell-based; conditions: H1581 and H2444, FIG. 4F
Protocol: FIGS. 4A-4H illustrate the finding that NGI-1 blocks RTK driven proliferation. FIG. 4A illustrates western blot analysis of EGFR phosphorylation (Y1173) and gel mobility in PC9 (EGFR-mutant) and A549 (k-ras mutant) NSCLC cells after 10 μM NGI-1 treatment for 24 h. […] Actin expression was used as a control for protein loading. FIG. 4B illustrates MTT assays results of PC9 following treatment with 10 μM NGI-1 or 1 μM tunicamycin for a total of 5 d. Relative proliferation id reported in fold increase from day 0. FIG. 4C illustrates MTT assays results of A549 following treatment with 10 μM NGI-1 or 1 μM tunicamycin for a total of 5 d. Relative proliferation id reported in fold increase from day 0. FIG. 4D illustrates protein phosphorylation profiles of PC9 cells analyzed by phospho-protein array to assess the response of PC9 to 10 μM NGI-1 for 24 h. FIG. 4E illustrates protein phosphorylation profiles of A549 cells analyzed by phospho-protein array to assess the response of A549 to 10 μM NGI-1 for 24 h. FIG. 4F illustrates western blot analysis of FGFR phosphorylation (Y653/654) and gel mobility for H1581 (TKI sensitive) and H2444 (TKI insensitive) NSCLC cell lines. […] FIG. 4G illustrates MTT assays for H1581 cells treated with 10 μM NGI-1 for 5 d. Asterisk (***) indicates a significant difference p<0.001 for MTT. FIG. 4H illustrates MTT assays for H2444 cells treated with 10 μM NGI-1 for 5 d. […]

[4] = tested on: H2444 cells; assay: MTT proliferation assay, H2444; assay type: cell-based; conditions: H2444, 10 μM NGI-1, 5 d
Protocol: FIGS. 4A-4H illustrate the finding that NGI-1 blocks RTK driven proliferation. FIG. 4A illustrates western blot analysis of EGFR phosphorylation (Y1173) and gel mobility in PC9 (EGFR-mutant) and A549 (k-ras mutant) NSCLC cells after 10 μM NGI-1 treatment for 24 h. […] Actin expression was used as a control for protein loading. FIG. 4B illustrates MTT assays results of PC9 following treatment with 10 μM NGI-1 or 1 μM tunicamycin for a total of 5 d. Relative proliferation id reported in fold increase from day 0. FIG. 4C illustrates MTT assays results of A549 following treatment with 10 μM NGI-1 or 1 μM tunicamycin for a total of 5 d. Relative proliferation id reported in fold increase from day 0. FIG. 4D illustrates protein phosphorylation profiles of PC9 cells analyzed by phospho-protein array to assess the response of PC9 to 10 μM NGI-1 for 24 h. FIG. 4E illustrates protein phosphorylation profiles of A549 cells analyzed by phospho-protein array to assess the response of A549 to 10 μM NGI-1 for 24 h. […]
Growth rates were determined by CellTiter 96 NonRadioactive Cell Proliferation Assay (Promega; Madison, Wis. USA) according to the manufacturer's directions. […] Cell numbers were estimated after 0, 3, and 5 days by adding MTT [(3-(4,5-Dimethylthiazol-2-yl)-2,5-diphenyltetrazolium bromide] reagent to the wells 4 hours before taking the spectrophotometric reading (absorbance at 570 nm).

[5] = tested on: HepG2 cells; assay: Celltiter Glo viability assay, HepG2; assay type: cell-based; conditions: HEPG2 EC50 over NLG AC40
Description: as §1, §2

[6] = Celltiter Glo viability assay, HepG2; assay type: cell-based; conditions: human, HepG2 cells; HEPG2, 72 h of compound exposure; read-out: Cytotoxicity Assay Mean EC50
Description: as §1, §2

[7] = D54-ERLucT cells, luciferase activation

Cc1cnc(NC(=O)c2cc(S(=O)(=O)N(C)C)ccc2N2CCCC2)s1 [NGI-1, 5-(N,N-Dimethylsulfamoyl)-N-(5-methylthiazol-2-yl)-2-(pyrrolidin-1-yl)benzamide]
NLG Inhibition ASSAY Potency Mean AC40 [1, 7]: 0.17 µM
NLG Inhibition max act, % [1, 7]: 321.4%
IC50 ([1]; luminescent activity, estimated, FIG. 1C, read-out: IC50 in intact D54 ER-LucT cells in culture): 1.06 µM
reduction of proliferation, MTT [2]: > 45%
FGFR1 phosphorylation [3]: blocked FGFR1 phosphorylation
effect on proliferation, MTT [4]: insensitive to NGI-1
Selectivity (EC50/AC40) [5]: >172
EC50 at 72 h [6]: > 30 µM
